Laboratory results as given in PubChem BioAssay (NCI).
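Exposure lasted 48 hours, with cells grown in 96-well plates and compounds tested at five concentrations. The concentration for 50% growth inhibition is given as GI50. TGI marks complete inhibition of growth.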

Key:
Assay in all cases: DTP human tumour cell line panel, 48 h
786-0 renal = system: 786-0 renal
A498 renal = system: A498 renal
A549 NSCLC = system: A549 NSCLC
ACHN renal = system: ACHN renal
BT-549 breast = system: BT-549 breast
CAKI-1 renal = system: CAKI-1 renal
CCRF-CEM leukemia = system: CCRF-CEM leukemia
COLO 205 colon = system: COLO 205 colon
DU-145 prostate = system: DU-145 prostate
EKVX NSCLC = system: EKVX NSCLC
HCC-2998 colon = system: HCC-2998 colon
HCT-116 colon = system: HCT-116 colon
HCT-15 colon = system: HCT-15 colon
HL-60(TB) leukemia = system: HL-60(TB) leukemia
HOP-62 NSCLC = system: HOP-62 NSCLC
HS 578T breast = system: HS 578T breast
HT29 colon = system: HT29 colon
IGROV1 ovarian = system: IGROV1 ovarian
K-562 leukemia = system: K-562 leukemia
KM12 colon = system: KM12 colon
LOX IMVI melanoma = system: LOX IMVI melanoma
M14 melanoma = system: M14 melanoma
MALME-3M melanoma = system: MALME-3M melanoma
MCF7 breast = system: MCF7 breast
MDA-MB-231 breast = system: MDA-MB-231 breast
MOLT-4 leukemia = system: MOLT-4 leukemia
NCI-H226 lung = system: NCI-H226 lung
NCI-H23 lung = system: NCI-H23 lung
NCI-H460 lung = system: NCI-H460 lung
NCI-H522 lung = system: NCI-H522 lung
NCI/ADR-RES ovarian = system: NCI/ADR-RES ovarian
OVCAR-4 ovarian = system: OVCAR-4 ovarian
OVCAR-5 ovarian = system: OVCAR-5 ovarian
OVCAR-8 ovarian = system: OVCAR-8 ovarian
PC-3 prostate = system: PC-3 prostate
RPMI-8226 leukemia = system: RPMI-8226 leukemia
RXF 393 renal = system: RXF 393 renal
SF-268 CNS = system: SF-268 CNS
SF-295 CNS = system: SF-295 CNS
SF-539 CNS = system: SF-539 CNS
SK-MEL-2 melanoma = system: SK-MEL-2 melanoma
SK-MEL-5 melanoma = system: SK-MEL-5 melanoma
SK-OV-3 ovarian = system: SK-OV-3 ovarian
SN12C renal = system: SN12C renal
SNB-19 CNS = system: SNB-19 CNS
SNB-75 CNS = system: SNB-75 CNS
SR leukemia = system: SR leukemia
SW-620 colon = system: SW-620 colon
T-47D breast = system: T-47D breast
TK-10 renal = system: TK-10 renal
U251 CNS = system: U251 CNS
UACC-257 melanoma = system: UACC-257 melanoma
UACC-62 melanoma = system: UACC-62 melanoma
UO-31 renal = system: UO-31 renal
HOP-92 NSCLC = system: HOP-92 NSCLC
MDA-MB-435 = system: MDA-MB-435
OVCAR-3 ovarian = system: OVCAR-3 ovarian

COc1ccc2c(c1)nc(N)c1c3cccnc3cn21
GI50 (786-0 renal): 115 nM
TGI (786-0 renal): 16700 nM
GI50 (A498 renal): 33.9 nM
TGI (A498 renal): 3040 nM
GI50 (A549 NSCLC): 56.5 nM
TGI (A549 NSCLC): 16600 nM
GI50 (ACHN renal): 93.8 nM
TGI (ACHN renal): 15000 nM
GI50 (BT-549 breast): 447 nM
TGI (BT-549 breast): 28900 nM
GI50 (CAKI-1 renal): 40.7 nM
TGI (CAKI-1 renal): 16300 nM
GI50 (CCRF-CEM leukemia): 39 nM
TGI (CCRF-CEM leukemia): > 100000 nM
GI50 (COLO 205 colon): 45.2 nM
TGI (COLO 205 colon): 668 nM
GI50 (DU-145 prostate): 56.1 nM
TGI (DU-145 prostate): > 33600 nM
GI50 (EKVX NSCLC): 2910 nM
TGI (EKVX NSCLC): > 100000 nM
GI50 (HCC-2998 colon): 103 nM
TGI (HCC-2998 colon): 17500 nM
GI50 (HCT-116 colon): 47.1 nM
TGI (HCT-116 colon): > 36700 nM
GI50 (HCT-15 colon): 45.6 nM
TGI (HCT-15 colon): 33700 nM
GI50 (HL-60(TB) leukemia): 31.3 nM
TGI (HL-60(TB) leukemia): 18300 nM
GI50 (HOP-62 NSCLC): 273 nM
TGI (HOP-62 NSCLC): > 78900 nM
GI50 (HS 578T breast): 95.1 nM
TGI (HS 578T breast): > 49600 nM
GI50 (HT29 colon): 35.1 nM
TGI (HT29 colon): 1880 nM
GI50 (IGROV1 ovarian): 106 nM
TGI (IGROV1 ovarian): 37100 nM
GI50 (K-562 leukemia): 38 nM
TGI (K-562 leukemia): 24900 nM
GI50 (KM12 colon): 47.3 nM
TGI (KM12 colon): > 41200 nM
GI50 (LOX IMVI melanoma): 71.3 nM
TGI (LOX IMVI melanoma): 18700 nM
GI50 (M14 melanoma): 39 nM
TGI (M14 melanoma): 27900 nM
GI50 (MALME-3M melanoma): 153 nM
TGI (MALME-3M melanoma): 25700 nM
GI50 (MCF7 breast): 302 nM
TGI (MCF7 breast): 17500 nM
GI50 (MDA-MB-231 breast): 556 nM
TGI (MDA-MB-231 breast): 22400 nM
GI50 (MOLT-4 leukemia): 86.1 nM
TGI (MOLT-4 leukemia): > 100000 nM
GI50 (NCI-H226 lung): 737 nM
TGI (NCI-H226 lung): 27000 nM
GI50 (NCI-H23 lung): 345 nM
TGI (NCI-H23 lung): 50000 nM
GI50 (NCI-H460 lung): 92.3 nM
TGI (NCI-H460 lung): 1770 nM
GI50 (NCI-H522 lung): 41.1 nM
TGI (NCI-H522 lung): 3450 nM
GI50 (NCI/ADR-RES ovarian): 38.2 nM
TGI (NCI/ADR-RES ovarian): 50200 nM
GI50 (OVCAR-4 ovarian): 294 nM
TGI (OVCAR-4 ovarian): > 100000 nM
GI50 (OVCAR-5 ovarian): 438 nM
TGI (OVCAR-5 ovarian): > 100000 nM
GI50 (OVCAR-8 ovarian): 89.8 nM
TGI (OVCAR-8 ovarian): > 54500 nM
GI50 (PC-3 prostate): 41.2 nM
TGI (PC-3 prostate): 27700 nM
GI50 (RPMI-8226 leukemia): 54.6 nM
TGI (RPMI-8226 leukemia): 34200 nM
GI50 (RXF 393 renal): 22.4 nM
TGI (RXF 393 renal): 77.7 nM
GI50 (SF-268 CNS): 91.7 nM
TGI (SF-268 CNS): 76900 nM
GI50 (SF-295 CNS): 36.5 nM
TGI (SF-295 CNS): 1130 nM
GI50 (SF-539 CNS): 43.2 nM
TGI (SF-539 CNS): 1090 nM
GI50 (SK-MEL-2 melanoma): 843 nM
TGI (SK-MEL-2 melanoma): 24200 nM
GI50 (SK-MEL-5 melanoma): 32.2 nM
TGI (SK-MEL-5 melanoma): 836 nM
GI50 (SK-OV-3 ovarian): 50.8 nM
TGI (SK-OV-3 ovarian): > 79300 nM
GI50 (SN12C renal): 382 nM
TGI (SN12C renal): > 100000 nM
GI50 (SNB-19 CNS): 212 nM
TGI (SNB-19 CNS): > 100000 nM
GI50 (SNB-75 CNS): 60 nM
TGI (SNB-75 CNS): > 100000 nM
GI50 (SR leukemia): 33.9 nM
TGI (SR leukemia): 22400 nM
GI50 (SW-620 colon): 37.3 nM
TGI (SW-620 colon): 14500 nM
GI50 (T-47D breast): 6750 nM
TGI (T-47D breast): 33400 nM
GI50 (TK-10 renal): 252 nM
TGI (TK-10 renal): 19900 nM
GI50 (U251 CNS): 47.4 nM
TGI (U251 CNS): 14600 nM
GI50 (UACC-257 melanoma): 64 nM
TGI (UACC-257 melanoma): 26700 nM
GI50 (UACC-62 melanoma): 54.1 nM
TGI (UACC-62 melanoma): 22100 nM
GI50 (UO-31 renal): 77.6 nM
TGI (UO-31 renal): 17900 nM

Cc1cn2c(/C=N/N/C(N)=N\N)c(-c3ccc(Cl)c([N+](=O)[O-])c3)nc2s1
GI50 (786-0 renal): 859 nM
TGI (786-0 renal): 1730 nM
GI50 (A498 renal): 7580 nM
TGI (A498 renal): 21500 nM
GI50 (ACHN renal): 928 nM
TGI (ACHN renal): 1630 nM
GI50 (BT-549 breast): 1120 nM
TGI (BT-549 breast): 2360 nM
GI50 (CAKI-1 renal): 8490 nM
TGI (CAKI-1 renal): 17600 nM
GI50 (DU-145 prostate): 1120 nM
TGI (DU-145 prostate): 3650 nM
GI50 (EKVX NSCLC): 3990 nM
TGI (EKVX NSCLC): 15600 nM
GI50 (HCT-15 colon): 968 nM
TGI (HCT-15 colon): 2040 nM
GI50 (HL-60(TB) leukemia): 25200 nM
TGI (HL-60(TB) leukemia): > 50000 nM
GI50 (HOP-62 NSCLC): 4980 nM
TGI (HOP-62 NSCLC): 15900 nM
GI50 (HOP-92 NSCLC): 2550 nM
TGI (HOP-92 NSCLC): 13300 nM
GI50 (HS 578T breast): 1100 nM
TGI (HS 578T breast): 2390 nM
GI50 (IGROV1 ovarian): 3550 nM
TGI (IGROV1 ovarian): 37800 nM
GI50 (K-562 leukemia): 2170 nM
TGI (K-562 leukemia): > 50000 nM
GI50 (KM12 colon): 1020 nM
TGI (KM12 colon): 2290 nM
GI50 (MCF7 breast): 1560 nM
TGI (MCF7 breast): > 50000 nM
GI50 (MDA-MB-231 breast): 791 nM
TGI (MDA-MB-231 breast): 1870 nM
GI50 (MDA-MB-435): 1050 nM
TGI (MDA-MB-435): 2220 nM
GI50 (NCI-H23 lung): 4180 nM
TGI (NCI-H23 lung): 20000 nM
GI50 (NCI-H522 lung): 4580 nM
TGI (NCI-H522 lung): 32100 nM
GI50 (NCI/ADR-RES ovarian): 15700 nM
TGI (NCI/ADR-RES ovarian): 46800 nM
GI50 (OVCAR-3 ovarian): 865 nM
TGI (OVCAR-3 ovarian): 1750 nM
GI50 (OVCAR-5 ovarian): 1030 nM
TGI (OVCAR-5 ovarian): 2100 nM
GI50 (PC-3 prostate): 9950 nM
TGI (PC-3 prostate): 24800 nM
GI50 (RPMI-8226 leukemia): 4540 nM
TGI (RPMI-8226 leukemia): > 50000 nM
GI50 (SF-268 CNS): 1030 nM
TGI (SF-268 CNS): 2370 nM
GI50 (SF-295 CNS): 891 nM
TGI (SF-295 CNS): 1800 nM
GI50 (SF-539 CNS): 993 nM
TGI (SF-539 CNS): 1830 nM
GI50 (SK-MEL-2 melanoma): 7630 nM
TGI (SK-MEL-2 melanoma): 23400 nM
GI50 (SK-MEL-5 melanoma): 4290 nM
TGI (SK-MEL-5 melanoma): 16400 nM
GI50 (SK-OV-3 ovarian): 1290 nM
TGI (SK-OV-3 ovarian): 2780 nM
GI50 (SN12C renal): 1270 nM
TGI (SN12C renal): 4090 nM
GI50 (SNB-19 CNS): 2050 nM
TGI (SNB-19 CNS): 18600 nM
GI50 (T-47D breast): 878 nM
TGI (T-47D breast): 2480 nM
GI50 (TK-10 renal): 5820 nM
TGI (TK-10 renal): 30700 nM
GI50 (U251 CNS): 914 nM
TGI (U251 CNS): 1630 nM
GI50 (UACC-257 melanoma): 1410 nM
TGI (UACC-257 melanoma): 4870 nM
GI50 (UACC-62 melanoma): 883 nM
TGI (UACC-62 melanoma): 1670 nM
GI50 (UO-31 renal): 9450 nM
TGI (UO-31 renal): 22500 nM

N=C(N)c1ccc(-c2ccc(-c3ccc(Cl)cc3)o2)nc1
GI50 (CAKI-1 renal): 1420 nM
TGI (CAKI-1 renal): 2740 nM
